Source: ChEMBL document CHEMBL1201862, “PubChem BioAssay data set” (2004)
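These data come from cells grown in 96-well plates and exposed to compound for 48 hours at five concentrations. The concentration for 50% growth inhibition is given as GI50.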 Calls of active or inactive are those of the source. No stated cut-off is given here; in the data, active = GI50 up to about 1.1 µM and inactive = higher.

Key:
Experiment in all cases: NCI-60 cell line screen, 48 h
CAKI-1 = system: CAKI-1
DU-145 = system: DU-145
HCC 2998 = system: HCC 2998
HT-29 = system: HT-29
Hs-578T = system: Hs-578T
K562 = system: K562
KM12 = system: KM12
MDA-MB-231 = system: MDA-MB-231
MDA-MB-435 = system: MDA-MB-435
MOLT-4 = system: MOLT-4
OVCAR-3 = system: OVCAR-3
OVCAR-8 = system: OVCAR-8
PC-3 = system: PC-3
SF-539 = system: SF-539
SK-OV-3 = system: SK-OV-3
SN12C = system: SN12C
T47D = system: T47D
UACC-62 = system: UACC-62

SMILES | GI50 (CAKI-1) | GI50 (DU-145) | GI50 (HCC 2998) | GI50 (HT-29) | GI50 (Hs-578T) | GI50 (K562) | GI50 (KM12) | GI50 (MDA-MB-231) | GI50 (MDA-MB-435) | GI50 (MOLT-4) | GI50 (OVCAR-3) | GI50 (OVCAR-8) | GI50 (PC-3) | GI50 (SF-539) | GI50 (SK-OV-3) | GI50 (SN12C) | GI50 (T47D) | GI50 (UACC-62)
CC(=O)c1cc2c(s1)C(=O)c1sccc1C2=O | 0.212 µM (active) | 0.0553 µM (active) | 0.218 µM (active) | 0.202 µM (active) | 0.0365 µM (active) | 0.018 µM (active) | 0.118 µM (active) | 0.0346 µM (active) | < 0.01 µM (active) | 0.0486 µM (active) | < 0.014 µM (active) | 0.0738 µM (active) | 0.0568 µM (active) | 0.0181 µM (active) | 1.73 µM (inactive) | 0.0156 µM (active) | 0.222 µM (active) | 0.0333 µM (active)
NN/C(=N\S(=O)(=O)c1cc2ccccc2s1)Nc1ccc(Cl)cc1 | 18.5 µM (inactive) | 17.8 µM (inactive) |  | 19.9 µM (inactive) |  | 13.3 µM (inactive) | 19.1 µM (inactive) | 20.1 µM (inactive) |  | 18.9 µM (inactive) | 18.9 µM (inactive) | 22.4 µM (inactive) | 22.2 µM (inactive) | 16.1 µM (inactive) | 34.9 µM (inactive) | 22 µM (inactive) | 17.8 µM (inactive) | 17.5 µM (inactive)
O=C(C(Cl)=C(Nc1ccccc1)Nc1ccccc1)C(Cl)Cl | 18.8 µM (inactive) | 51.2 µM (inactive) | 19 µM (inactive) | 21.2 µM (inactive) | > 100 µM (inactive) | 25.3 µM (inactive) | 39.1 µM (inactive) | 40.5 µM (inactive) | 10.6 µM (inactive) | 16 µM (inactive) | 23 µM (inactive) | 17.3 µM (inactive) | 36.9 µM (inactive) | 24.6 µM (inactive) | 37.6 µM (inactive) | 25.5 µM (inactive) | 12.4 µM (inactive) | 18.6 µM (inactive)
COC(=O)C1=C(C)NC2(O)C=CC(=O)C3C(=O)N(c4ccccc4)C(=O)C132 (stereo not given) | > 100 µM (inactive) | > 100 µM (inactive) | 98.2 µM (inactive) | 23.3 µM (inactive) | > 100 µM (inactive) | 48.2 µM (inactive) | > 100 µM (inactive) | > 100 µM (inactive) | 64.7 µM (inactive) | 90.6 µM (inactive) | 66.1 µM (inactive) | > 100 µM (inactive) | > 100 µM (inactive) | > 100 µM (inactive) | > 100 µM (inactive) | > 100 µM (inactive) | 36.8 µM (inactive) | 97.1 µM (inactive)
COC(=O)C(=C/c1ccc(OC)cc1)/C(C(=O)O)=C(/C)c1ccccc1 | > 100 µM (inactive) |  | > 100 µM (inactive) | > 100 µM (inactive) |  | > 100 µM (inactive) | > 100 µM (inactive) |  |  | > 100 µM (inactive) | > 100 µM (inactive) | > 100 µM (inactive) |  | > 100 µM (inactive) | > 100 µM (inactive) | > 100 µM (inactive) |  | > 100 µM (inactive)
CCCc1ccc(OCC(=O)N/N=C/c2c(-c3ccccc3)[nH]c3ccccc23)cc1 | 21.1 µM (inactive) | 21.5 µM (inactive) | 4.04 µM (inactive) | 6.64 µM (inactive) | 28.4 µM (inactive) | 3.99 µM (inactive) | 4.91 µM (inactive) | 7.06 µM (inactive) | 2.77 µM (inactive) | 5.01 µM (inactive) | 24.5 µM (inactive) | 9.08 µM (inactive) | 5.98 µM (inactive) | 16.2 µM (inactive) | 27.2 µM (inactive) | 14 µM (inactive) | 5.77 µM (inactive) | 11.9 µM (inactive)
COc1cccc(/C=C2\CCCc3ccccc3C2=O)c1 | 23.4 µM (inactive) | 19.1 µM (inactive) |  | 17.1 µM (inactive) | 17.9 µM (inactive) | 16.1 µM (inactive) | 17.6 µM (inactive) | 13.8 µM (inactive) | 10.1 µM (inactive) | 19.4 µM (inactive) | 17.1 µM (inactive) | 19.2 µM (inactive) | 16.2 µM (inactive) | 17.1 µM (inactive) | 30.5 µM (inactive) | 16.1 µM (inactive) |  | 12.9 µM (inactive)
